Experimental data reported in patent US20250082651A1, “GANAXOLONE FOR USE IN TREATING GENETIC EPILEPTIC DISORDERS” (Marinus Pharmaceuticals, Inc., priority 2017, published 2025).
Values joined by “and” are separate entries in the source; they are usually repeats but may differ in a detail not shown here. Equal values may be shown once. “Also recorded” adds a separate entry of the source.

What was measured:
[1] = Multiple dose PK, 0.3 micron capsules 600, 800, 1000 mg BID escalating, healthy volunteers; type: in vivo, human; conditions: for Cmax: steady state
Procedure: Multiple-dose studies of oral ganaxolone formulations were conducted in healthy volunteers. The 0.3 micron ganaxolone capsules were administered BID with a standard meal or snack for 7 days and at increasing doses.
Steady-state was reached within 3 days of administration of 600, 800 and 1000 mg BID ganaxolone to healthy subjects. The medium and high dose regimens were started after 3 days on the low dose and medium dose regimens, respectively. In general, ganaxolone was rapidly absorbed following PO administration and the mean Cmax was attained within 2 hours after multiple dosing; median Tmax was independent of dose level. […] Proportionality was conserved from 600 mg to 800 mg.
Values at Day 6.5, 9.5 and 12.5 are from evening samples collected 12 hrs after the last dose on PK sampling days. Subjects received 600 mg ganaxolone BID on Days 4-6; 800 mg ganaxolone BID on Days 7-9; and 1000 mg ganaxolone BID on Days 10-12.

[2] = Integrated adverse events from placebo controlled studies of ganaxolone; type: in vivo, human; conditions: Ganaxolone n = 750, placebo controlled studies
Excerpt: As noted in Table 6, across multiple placebo controlled studies of ganaxolone across multiple indications including epilepsy, few side effects are reported that occur at a rate higher than those reported in placebo-treated subjects. These side effects are generally mild and have always been reversible. […] Four of the 7 children enrolled into this study remain on ganaxolone. Adverse events in this study are similar to those reported for all placebo controlled studies completed to date as summarized in Table 6 below.

[3] = test system: children with CDKL5 Deficiency Disorder; assay: Phase 2 open-label trial, CDKL5 (CDD) cohort, seizure efficacy; type: in vivo, human
Excerpt: Example 3 concerns a Phase 2 Multicenter, Open-Label Proof-of-Concept Trial of ganaxolone (GNX) in cohorts of children having genetic epilepsies (PCDH19, CDKL5 LGS, and CSWS) (ClinicalTrials.gov Identifier: NCT02358538). There were 11 female children with PCDH19 epilepsy between 5-16 years old with a confirmed genetic mutation. There were 6 female and 1 male children with confirmed genetic mutations in the CDKL5 cohort. There were 10 children in the Lennox Gastaut Syndrome cohort. Two children with CSWS were enrolled into the study. The study was conducted with 12 weeks baseline, and up to 26 weeks of treatment followed by a 52 week open label treatment. The primary efficacy was the percentage change in seizure frequency per 28 days relative to baseline calculated using daily seizure diary. [Time Frame: 26 weeks]. Secondary Outcome Measures were: Clinician Global Impression of Change score as assessed by questionnaire. [Time Frame: 26 Weeks]; Patient Global Impression of Change score as assessed by questionnaire. [Time Frame: 26 Weeks]; Evaluation of safety and tolerability of open-label ganaxolone as adjunctive therapy for uncontrolled seizures in children with rare genetic epilepsies, based on adverse event log and other clinical safety assessments. [Time Frame: 26 weeks]; Responder rates [Time Frame: 26 weeks]; and Seizure free days [Time Frame: 26 weeks].
Following screening and baseline evaluations, consenting patients enrolled into a 26-week study during which investigators were allowed to flexibly dose ganaxolone up to a dose of 1,800 mg/day for patients whose body weight was >30 kg, or up to 63 mg/kg/day for patients whose body-weight was <30 kg. The primary efficacy measure is % change from baseline in the 28-day seizure frequency count. Safety and tolerability were within the secondary objectives of the study.
In this study, oral ganaxolone suspension or capsules were administered up to a total of 63 mg/kg/day (maximum 1800 mg/day) over 2-4 weeks. About six-eight titration steps are used, depending on the size of the patient. Children larger than 30 kg may take the ganaxolone capsules. The ganaxolone oral suspension was administered through an oral dosing syringe three times daily. The ganaxolone capsules were administered twice daily. The patients experience better absorption of the ganaxolone with meals (milk).
After establishing baseline seizure frequency, qualifying subjects entered the study and were treated with open-label ganaxolone oral suspension or ganaxolone capsules at doses up to a maximum of 1800 mg/day for up to 6 months. Maximum study participation was 94 weeks: a screening period up to 12 weeks to establish baseline seizure frequency, up to 26 weeks of treatment, a 52 week extension for subjects who benefited from ganaxolone treatment, and up to 4 weeks of down titration period. […] Refractive cases of LGS or CSWS that had prior response to steroid or ACTH could also have been enrolled.
Ganaxolone oral suspension was administered through an oral dosing syringe by parent or legal guardian 3 times daily (TID), following the morning, noon, and evening meal or snack. Each dose was separated by a minimum of 4 hours and a maximum of 8 hours. A missed dose of ganaxolone could have been taken up to 4 hours before the next scheduled dose; otherwise, the missed dose was not to be given.
Ganaxolone capsules were administered with a glass of water or other liquid 2 times daily (BID), following the morning and evening meal or snack. Ganaxolone was provided as either an oral suspension or capsules based on the subject's weight at study entry. Ganaxolone oral suspension was administered through an oral dosing syringe TID by a parent or guardian, following the morning, midday, and evening meal or snack. Each dose was separated by a minimum of 4 hours and a maximum of 8 hours. Ganaxolone capsules were administered BID, following the morning and evening meal or snack. […]

rats = assay: Oral and IV single- and repeat-dose toxicology studies; type: in vivo, rat

## CC(=O)[C@H]1CC[C@H]2[C@@H]3CC[C@H]4C[C@](C)(O)CC[C@]4(C)[C@H]3CC[C@]12C [Ganaxolone, 3α-hydroxy-3β-methyl-5α-pregnan-20-one]
[1]; 600, 800 and 1000 mg BID, 0.3 micron capsules
  Time to steady-state: ≤ 3 days
[1]; 600 to 1000 mg BID
  Mean fluctuation at steady-state: 172% to 191%
[1]; human, plasma, oral, 600 mg BID, 0.3 micron capsules
  Cmax: 224 ng/mL
[1]; human, plasma, oral, 800 mg BID, 0.3 micron capsules
  Cmax: 263 ng/mL
[1]; human, plasma, oral, 1000 mg BID, 0.3 micron capsules
  Cmax: 262 ng/mL
[1]; human, plasma, oral, 600 to 1000 mg BID, read-out: Mean apparent total body CL at steady-state
  clearance: 10200 to 12800 mL/min
[1]; immediate release 0.3-micron particles, given BID
  Dose through which pharmacokinetics are linear: approximately 1200 mg/day
[2]
  Adverse event: Dizziness: 95 (13%) n (%)
  Adverse event: Fatigue: 51 (7%) n (%)
  Adverse event: Headache: 37 (5%) n (%)
  Adverse event: Somnolence: 134 (18%) n (%)
[3]; 2 out of 4 completed CDKL5 patients
  Improvement in seizure free days, individual patients: 78% and 368%
[3]; 4 completed CDKL5 patients
  Patients with >50% reduction in seizure counts: 3 out of 4
[3]; 7 CDKL5 patients
  Patients with increase/improvement in seizure-free days: Four of the 7; also recorded: Five of the 7
[3]; CDD cohort, PP Population
  Mean percent change in 28-day total seizure frequency from baseline to Week 26: 20.55%
  Median percent change in 28-day total seizure frequency from baseline to Week 26: 37.70%
[3]; CDD cohort, end of Week 26
  Clinical global impression of improvement: much improved: 3 subjects
  Clinical global impression of improvement: very much improved: 0 subjects
[3]; CDKL5, 3 months (3/7 subjects)
  Overall responder rate: 43%
[3]; CDKL5, 6 months (2/6 subjects)
  Overall responder rate: 33%
[3]; CDKL5 N=7, MITT
  28-day seizure frequency, sum of individual seizures and clusters, post-baseline 26-week open-label period, Mean (SD): 137.70
  28-day seizure frequency, sum of individual seizures and clusters, post-baseline 26-week open-label period, Median: 67.29
  28-day seizure frequency, sum of individual seizures and clusters, post-baseline through Month 3 (Day 91), Mean (SD): 129.78
  28-day seizure frequency, sum of individual seizures and clusters, post-baseline through Month 3 (Day 91), Median: 55.69
  Percent change from baseline (at Day 91), 28-day seizure frequency, sum of individual seizures and clusters, Mean (SD): 31.23% and −31.23%
  Percent change from baseline (at Day 91), 28-day seizure frequency, sum of individual seizures and clusters, Median: 47.34% and −47.34%
  Percent change from baseline (at Week 26), 28-day seizure frequency, sum of individual seizures and clusters, Mean (SD): 20.55% and −20.55%
  Percent change from baseline (at Week 26), 28-day seizure frequency, sum of individual seizures and clusters, Median: 37.70% and −37.70%
[3]; CDKL5 cohort, N=3
  % change seizure rate-12 month, Mean: −56.12%
  % change seizure rate-12 month, Median: −47.79%
  Post-baseline 28-day seizure rate-12 month, Mean: 114.39
  Post-baseline 28-day seizure rate-12 month, Median: 76.54
[3]; CDKL5 cohort, N=7
  % change seizure rate-3 month, Mean: −32.67%
  % change seizure rate-3 month, Median: −49.99%
  % change seizure rate-6 month, Mean: −16.81%
  % change seizure rate-6 month, Median: −47.80%
  Post-baseline 28-day seizure rate-3-month, Mean: 821.16
  Post-baseline 28-day seizure rate-3-month, Median: 57.87
  Post-baseline 28-day seizure rate-6 month, Mean: 1373.85
  Post-baseline 28-day seizure rate-6 month, Median: 67.29
[3]; CDKL5 n=7, MITT
  28-day individual seizure frequency, post-baseline 26-Week open-label period, Mean (SD): 103.70
  28-day individual seizure frequency, post-baseline 26-Week open-label period, Median: 67.29
  28-day individual seizure frequency, post-baseline through Month 3 (Day 91), Mean (SD): 103.69
  28-day individual seizure frequency, post-baseline through Month 3 (Day 91), Median: 53.82
  Percent change from baseline (at Day 91), 28-day individual seizure frequency, Mean (SD): −30.33%
  Percent change from baseline (at Day 91), 28-day individual seizure frequency, Median: −46.64%
  Percent change from baseline (at Week 26), 28-day individual seizure frequency, Mean (SD): −21.06%
  Percent change from baseline (at Week 26), 28-day individual seizure frequency, Median: −38.10%
[3]; children with CDKL5 disorder
  Median percent reduction in seizures: 43%
[3]; completed CDKL5 patients with >50% reduction
  Reduction in seizure counts, individual patients: 52% and 59% and 88%
[3]; first 6 CDKL5 patients, preliminary
  Patients with improvement in seizure control that persists for up to 6 months: 3 of 6
rats; oral and IV programmes
  Most common effect in toxicology studies: dose-related sedation
rats; rats, 6-month study, more pronounced in females
  Findings correlated to hepatic enzyme induction: increased liver weights and dose related hepatocellular hypertrophy
